Reference: patent US8889729B2, “Compositions for treating amyloid associated diseases” (Tel Aviv University Future Technology Development L.P., priority 2004, dated 2014)

Key:
[1] = target: T1, Aβ 1-42 (Homo sapiens, UniProt P05067); test: Thioflavin T fluorescence assay of Aβ 1-42 fibrillization (Example 2); format: biochemical; conditions: for inhibition of β-amyloid polypeptide fibril formation: 50 μM compound, 5 μM Aβ 1-42, 24 hours at 37° C.; for concentration dependence of inhibition of fibril formation: Aβ1-42, fixed incubation time of 24 hours; for IC50: Aβ1-42 fibrillization, 24 hours, calculated by the curve equation, read-out: apparent IC50
T1 construct: Aβ 1-40 and Aβ 1-42, >98% pure) were purchased from Bachem; purchased Bachem (Bubendorf, Switzerland); host or cells: chemical synthesis
T1 sequence (P05067 672-713 limits assumed): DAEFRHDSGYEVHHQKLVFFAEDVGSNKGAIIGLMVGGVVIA
Experimental: (§1) Aβ solutions: Synthetic lyophilized β-amyloid polypeptides (Aβ 1-40 and Aβ 1-42, >98% pure) were purchased from Bachem (Bubendorf, Switzerland). A 100 μM Aβ stock solution was prepared by dissolving Aβ1-40 or Aβ1-42 in dimethylsulfoxide (DMSO) and sonicating the resulting solution during 1 minute to avoid pre-aggregation. Aβ solutions were prepared by immediate dilution with 10 mM phosphate-buffered saline (100 mM NaCl, 0.5 mM EDTA, pH 7.4) to a final concentration of 10 μM (containing 10% (v/v) DMSO).
(§2) Indole derivatives stock solutions were prepared by dissolving an indole derivative in DMSO, so as to achieve a concentration of 20 mM and then diluting the solution with 10 mM PBS buffer (100 mM NaCl, 0.5 mM EDTA, pH 7.4) to a final concentration of 100 μM (containing 0.5% (v/v) DMSO).
(§3) Thioflavin T fluorescence assay: Fibrillization of A[…] 1-42 polypeptide was monitored using a Thioflavin T (ThT) dye binding assay. A 10 μM Aβ solution (either Aβ1-40 or Aβ1-42) was prepared as described above and was immediately mixed with the indole derivative stock solutions (100 μM), so as to achieve a final concentration of 5 μM for Aβ and various concentrations of the indole derivative. For each measurement, ThT was added to a 0.1 ml sample, to give a final concentration of 0.3 μM ThT and 0.4 μM Aβ. The samples were incubated at 37° C. Fluorescence measurements, made after addition of the ThT solution to each sample at 37° C., were carried out using a Jobin Yvon FluoroMax-3 spectrometer (excitation 450 nm, 2.5 nm slit; emission 480 nm, 5 nm slit, integration time of 1 second). Background was subtracted from each sample. Each experiment was repeated in quadruplicate.
Inhibition of amyloid formation: The level of amyloid formation was detected using the above described Thioflavin T (ThT) dye binding assay. Fluorescence (relative intensity, measured in units of percent) of the ThT bound Aβ 1-42 remaining following 24 hours at 37° C., in the absence, and in the presence of 50 μM indole or indole derivative, was measured. Each measurement was recorded immediately after the fluorescence intensity reached a maximum value. The results obtained with representative indole derivatives, each representing a mean of four independent measurements along with an associated error bar representing a standard error, are graphically presented in FIG. 4.
Concentration Dependence of Indole Derivatives inhibition activity: To examine the inhibition efficiency of the indole derivatives, the concentration dependence of inhibition of fibril formation was studied. The fibrillization of Aβ1-42, with and without an indole derivative was measured using the ThT fluorescence assay described above at a fixed incubation time of 24 hours.

[2] = target: T2, Aβ1-40 (Homo sapiens, UniProt P05067); test: Kinetics of Aβ1-40 fibrillogenesis inhibition, ThT fluorescence assay; format: biochemical
T2 construct: Synthetic lyophilized β-amyloid polypeptides (Aβ 1-40 and Aβ 1-42, >98% pure); purchased Bachem (Bubendorf, Switzerland); host or cells: chemical synthesis
T2 sequence (P05067 672-711 limits assumed): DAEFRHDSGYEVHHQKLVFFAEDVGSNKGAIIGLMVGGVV
Experimental: as §1, §2, §3
Kinetics Studies of Aβ1-40 Fibrillogenesis Inhibition: Aβ1-40, which has a slower fibrillogenesis rate [see, Jarrett et al. (1993) Biochemistry 32, 4693-4697] was used in these studies, in order to obtain better temporal resolution, assuming that a slower rate would allow more significant inhibition and a better understanding of the effect. 3-Hydroxyindole (denoted as 3HI), 4-hydroxyindole (denoted as 4HI) and indole-3-carbinol (denoted herein as I3C) were each added at concentrations of 5 μM, 25 μM, and 50 μM to a solution containing 5 μM of Aβ1-40 (prepared as described above) and the kinetics of Aβ1-40 fibrillogenesis inhibition was measured using the ThT fluorescence assay.

[3] = target: T2, Aβ1-40; test: TEM ultrastructural analysis of Aβ1-40 samples from kinetic studies
Experimental: Transmission Electron microscopy (TEM): A 10 μl sample of the ThT fluorescence assay was placed on a 400 mesh copper grid covered by carbon-stabilized Formvar film (SPI Supplies, West Chester, Pa.). After 1.5 minutes, excess fluid was removed and the grids were negatively stained for 2 minutes with 10 μl of 2% uranyl acetate solution. Excess fluid was removed and the samples were viewed using a JEOL 1200EX electron microscope operating at 80 kV. Ultrastructural Analysis of amyloid fibril formation: The effect of the indole derivatives on the ultrastructural properties of the assembled Aβ was first evaluated by TEM measurements. Thus, TEM analysis was performed with samples of Aβ1-40 obtained from the kinetic studies described above after incubation for 14 days.

[4] = target: T2, Aβ1-40; test: AFM structural analysis of Aβ1-40 samples from kinetic studies; conditions: 50 μM compound, once control samples reached the polymerization phase
Experimental: Atomic force microscopy (AFM): For each experiment, a 60 μl sample of was taken for AFM measurement at three different time points correlating to the amyloidogenic kinetic curve, as detailed hereinafter. The sample was centrifuged for 1.5 minutes at 13,000 rpm and 40 μl of the supernatant was removed. The remaining 20 μl droplet of the solution was re-suspended and deposited onto freshly cleaved mica for 1.5 minutes. The substrate was washed with 160 μl of double-distilled H2O to reduce background and to eliminate salts and buffer contaminants. The mica samples were then dried at room temperature. At least four regions of the mica surface were examined to ensure that similar structures existed throughout the sample. AFM images were obtained using a Veeco NanoScope IV MultiMode AFM (Digital Instruments, Santa Barbara, USA) in tapping mode. Measurements were performed at a resonance frequency of about 321.4 kHz.
Additional structural analyses were performed using AFM measurements, performed with Aβ1-40 samples taken from the kinetic studies once the control samples reached the different fibrillogenesis phase.

[5] = system: PC12 cells; test: Aβ1-40 cytotoxicity on PC12 cells, MTT assay; format: cell-based; conditions: for elevation of viability rate of PC12 cells compared with control: 5 μM Aβ1-40, MTT after 24 hours; for inhibitory effect on Aβ1-40 cytotoxicity: both assays (T=0 and after 7 days incubation)
Experimental: Cell culture: PC12 pheochromocytoma cell line, a cultured benign tumor of the sympathetic nervous system, was routinely grown in Dulbecco's Modified Eagle Medium (DMEM) supplemented with 8% (v/v) fetal calf serum, 8% (v/v) horse serum, 100 U/ml penicillin, 100 U/ml streptomycin, and 2 mM L-glutamine (Biological industries, Israel). The cells were maintained at 37° C. in a humidified atmosphere containing 5% CO2. Cell cytotoxicity assay: PC-12 cells (3×10^5 cells/ml) were cultured in 96-well microplates (100 μl/well) and were incubated overnight at 37° C. The wells were then washed once with serum free-DMEM, so as to exclude the effect of the serum. To each well 100 μl of 5 μM Aβ1-40 (prepared from a stock solution of 0.5 mM in 10 mM NaOH) and an indole derivative at various concentrations were added. Each determination was made in quadruplicate. Following incubation for 24 hours at 37° C., cell viability was evaluated using the MTT assay (as described in Hansen et al. (1989) J. Immunol. Methods 119, 203-210). The effect of the indole derivatives on the formation of cytotoxic amyloid assemblies was determined by measuring the toxicity of the formed Aβ on pheochromocytoma cell line cultures (PC12) in the presence and absence of the indole derivatives. […] Cell viability was determined after 24 hours using the MTT assay. Cells incubated with only 5 μM Aβ1-40 served as the control.

[6] = 5 μM, 25 μM and 50 μM tested, 5 μM Aβ1-40

Oc1cccc2[nH]ccc12 [4-hydroxyindole]
inhibition of β-amyloid polypeptide fibril formation [1]: significantly inhibited | concentration dependence of inhibition of fibril formation [1]: dose-dependent inhibition pattern | IC50 [1]: ~85 µM | effect on nucleation phase (lag phase) ([2]; 5 μM compound, 5 μM Aβ1-40): less significant | slope of growth curve (polymerization phase) ([2]; 5 μM compound, 5 μM Aβ1-40): the most sharp | inhibition at 5 µM ([2]; 5 μM compound, 5 μM Aβ1-40, endpoint of experiment, read-out: inhibition level at final equilibrium phase): ~60% | effect on nucleation phase (lag phase) ([2]; 25 μM compound, 5 μM Aβ1-40): significantly longer nucleation phase | inhibition level at final equilibrium phase ([2]; 25 μM compound, 5 μM Aβ1-40, endpoint of experiment): almost complete | effect on nucleation phase (lag phase) ([2]; 50 μM compound, 5 μM Aβ1-40): significantly longer nucleation phase | inhibition level at final equilibrium phase ([2]; 50 μM compound, 5 μM Aβ1-40, endpoint of experiment): almost complete | inhibition level at final equilibrium phase, comparison among compounds ([2]; all the tested concentrations): highest inhibition level | fibril ultrastructure by TEM ([3]; 5 μM or more of compound): no amyloid fibrils | fibril ultrastructure by TEM ([3]; 25 μM compound, 14 days incubation): devoid of fibrils and contained only a minor amount of small fibrils | amyloid fibril formation by AFM [4]: no fibrils | protective effect, concentration dependence ([5]; 0.5 μM to 50 μM, 5 μM Aβ1-40, solution incubated 7 days): dose-dependent | minimum concentration required for significant inhibition ([5]; 5 μM Aβ1-40, solution incubated 7 days): 2.5 µM | elevation of viability rate of PC12 cells compared with control ([5]; 25 μM compound): about 25% | elevation of viability rate of PC12 cells compared with control ([5]; 50 μM compound): about 25% | toxic effect of Aβ1-40 ([5]; 50 μM compound, 5 μM Aβ1-40, solution incubated 7 days): completely blocked | inhibitory effect on Aβ1-40 cytotoxicity [5]: most significant inhibitory effect

Oc1c[nH]c2ccccc12 [3-hydroxyindole]
inhibition of β-amyloid polypeptide fibril formation [1]: significantly inhibited | concentration dependence of inhibition of fibril formation [1]: dose-dependent inhibition pattern | IC50 [1]: ~100 µM | effect on nucleation phase (lag phase) compared with control [2, 6]: no effect on the nucleation phase | effect on slope of growth curve (polymerization phase) [2, 6]: dose-dependent effect | inhibition at 25 µM ([2]; 25 μM compound, 5 μM Aβ1-40, endpoint of experiment, read-out: inhibition level at final equilibrium phase): ~40% | inhibition at 50 µM ([2]; 50 μM compound, 5 μM Aβ1-40, endpoint of experiment, read-out: inhibition level at final equilibrium phase): ~60% | fibril ultrastructure by TEM ([3]; 50 μM compound, 14 days incubation): significant number of amorphous aggregates showing a congested form | amyloid fibril formation by AFM [4]: small aggregates that interacted with the amyloid fibrils | inhibitory effect on Aβ1-40 cytotoxicity [5]: no anti-cyclotoxic effect | improvement of PC12 survival rate compared with control ([5]; only at T=0 (solution added immediately), 5 μM Aβ1-40): about 25%

Oc1ccc2[nH]ccc2c1 [5-hydroxyindole]
inhibition of β-amyloid polypeptide fibril formation [1]: significantly reduced inhibition

Oc1cc2ccccc2[nH]1 [2-hydroxyindole]
inhibition of β-amyloid polypeptide fibril formation [1]: significantly reduced inhibition
